Test results as given in US20250262167A1, “COMPOUNDS, TARGETS AND PATHWAYS FOR MACROPHAGE MODULATION” (Massachusetts Institute of Technology, priority 2020, published 2025).
Structures can show the parent of a compound that is named as a salt.

Test system: human monocyte-derived macrophages (hMDMs)
Test: High throughput phenotypic screen of macrophage activation (cell shape, Z-score);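 note: phalloidin and DAPI stained hMDMs imaged by high-content microscopy, cell eccentricity compared with DMSO control by T-test, round morphology scored negative, elongated positive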
Assay type: cell-based
Design: key to Average Z-value: Z-score vs DMSO; negative = round cells, positive = elongated
Settings: average cell-shape Z-score of the listed compounds whose targets fall in the Wiki pathway; hMDMs, 20 µM, 24 hours; M1-activating compounds (negative Z)
Description: The Z-score was calculated by T-test to measure the difference of cell morphology between treatment and control. Stimuli had negative Z-scores when induced cells to round morphology and positive scores when induced cells to elongated morphology. […] Equally mixed human monocytes isolated from fresh blood of 4 healthy donors were cultured in vitro with 50 ng/mL M-CSF for 7 days. hMDMs were trypsinized and plated on 384-well plates (5000 cells/well in 50 μL). Cells were recovered in 10 ng/mL M-CSF for 16 hrs and then treated with compounds for 24 hrs. Cells were washed, fixed and stained with Phalloidin and DAPI. The plates were scanned with a high-content microscope with six-fields per well to quantify the cell number and cell morphology. […] The cell eccentricity was calculated to measure the cell morphology. The Z-score was calculated by T-test to measure the difference in cell morphologies between each compound and DMSO control.
Cells were treated with a library of over 4000 individual compounds or drugs at the final concentration of 20 μM using the CyBi-Well simultaneous pipettor (CyBio). […] After 24 hr incubation, supernatants were removed using the microplate washer (Bioteck) and cells were fixed by adding 50 μL 16% paraformaldehyde (Thermo Scientific) with the dispenser for 20 minutes. Cells were then washed with 50 μL 1×PBS twice and incubated for 20 minutes with NucBlue and AF746 Phalloidin (Invitrogen) to stain nucleus and cytoskeleton. Cells were then washed with 50 μL 1×PBS twice and maintained in PBS for the image acquirement. Plates were read in the Opera Phenix high content screening system (PerkinElmer) to photograph cells using 20× objective in 2 fluorescent channels (Blue and FarRed). A total of 6 different fields in each well and an average of 1,000 cells were imaged per well. CellProfiler was used to identify each cell by overlapping signals from its nucleus and cytoskeleton, and calculate the eccentricity as the parameter to measure the cell morphology. The Z-score was calculated by T-test to measure the difference of cell morphology between each treatment and control. For each row of the 384-well plate, total 4 wells with first and last two columns treated with the same concentration of DMSO were combined as the control for the other 20 treatment wells in that row. In the meantime, classic M1 and M2 stimuli were added to generate the gold-standard Z-score cutoffs with M1 or M2 activation. Classic M1 stimuli include LPS (100 ng/mL), IFNγ (50 ng/mL, Peprotech), TNFα (50 ng/mL, Peprotech), or IFNγ plus TNFα. Classic M2 stimuli include IL-10 (10 ng/mL, Peprotech), IL-4 (10 ng/mL, Peprotech), or IL-13 (5 ng/mL, Peprotech).

Compared with `OCCN(CCO)c1nc(N2CCCCC2)c2nc(N(CCO)CCO)nc(N3CCCCC3)c2n1` [DIPYRIDAMOLE], `O=C(c1ccc(Nc2nccc(-c3cc4ccccc4s3)n2)cc1)N1CCC(N2CCCC2)CC1` [IKK 16] is lower in “Average Z-value”: −4.41 for the first, −4.98 for the second.

Same assay, conditions: cell shape Z-score of hMDMs averaged over the compounds listed for the Wiki pathway; compounds at 20 µM for 24 hours; positive values = M2-like

Compared with `CC1(C)C(=O)C=C[C@]2(C)[C@H]3CC[C@@]4(C)[C@H](c5ccoc5)OC(=O)[C@H]5O[C@]54[C@]3(C)C=C[C@@H]12` [7-DESACETOXY-6,7-DEHYDROGEDUNIN], `O=C1Cc2c([nH]c3ccc([N+](=O)[O-])cc23)-c2ccccc2N1` [Alsterpaullone] is higher in “Average Z-value”: 7.92 for the first, 12.55 for the second.

Compared with `c1cc(-c2cnn3cc(-c4ccc(OCCN5CCCCC5)cc4)cnc23)ccn1` [Dorsomorphin dihydrochloride], `CN(C)CCC=C1c2ccccc2COc2ccccc21` [Doxepine HCl] is lower in “Average Z-value”: 11.09 for the first, 6.87 for the second.

Going from `Cl.Cl.O=S(=O)(NCCNC/C=C/c1ccc(Br)cc1)c1cccc2cnccc12` [H 89 dihydrochloride] to `O=C(O)c1nn(Cc2ccc(Cl)cc2Cl)c2ccccc12` [LONIDAMINE], the “Average Z-value” falls from 7.14 to 6.13.

First: COc1cc(C(=O)N2CCC(N3CCN(C)CC3)CC2)ccc1Nc1ncc2c(n1)N(C)c1ccccc1C(=O)N2C [LRRK2-IN-1]
Second: CCC[C@H](N[C@@H](C)C(=O)N1[C@H](C(=O)O)C[C@@H]2CCCC[C@@H]21)C(=O)OCC [PERINDOPRIL ERBUMINE]
The “Average Z-value” of the first is higher: 8.88 for the first, 7.27 for the second.

Compared with `CC1=C(/C=C/C(C)=C/C=C/C(C)=C/C(=O)O)C(C)(C)CCC1` [Retinoic acid], `CC[C@@H]1/C=C/C=C/C[C@H](C)[C@H](O)[C@](C)(O)C(=O)[C@H](C)[C@@H](O)[C@H](C)C(=O)[C@H](C)[C@@H](O)[C@H](C)/C=C/C(=O)O[C@H]2[C@@H](C)[C@@H](CC1)O[C@@]1(CC[C@@H](C)[C@@H](C[C@H](C)O)O1)[C@@H]2C` [oligomycin A] is higher in “Average Z-value”: 6.86 for the first, 7.16 for the second.

Going from `Cc1onc(-c2ccccc2)c1-c1ccc(S(N)(=O)=O)cc1` [valdecoxib] to (−)-Epigallocatechin Gallate, the “Average Z-value” falls from 8.60 to 7.36.

Same assay, conditions: cell shape Z-score of hMDMs treated with compound at 20 µM for 24 hours; averaged over the compounds listed for the WikiPathways pathway; negative = M1-like, positive = M2-like

Compared with `O=C1Nc2ccccc2C2=NC(CN3CCN(c4ccccc4)CC3)CN12` (stereo not shown), `CCCCC[C@H](O)/C=C/[C@H]1[C@H](O)CC(=O)[C@@H]1CCCCCCC(=O)O` [Alprostadil] is higher in “Average Z-value”: −9.21 for the first, −4.86 for the second.

Compared with `CCOc1nc2cccc(C(=O)OC(C)OC(=O)OC3CCCCC3)c2n1Cc1ccc(-c2ccccc2-c2nn[nH]n2)cc1` (stereo not shown) [CANDESARTAN CILEXTIL], `Cc1c[nH]c(-c2cnc(NCCNc3ccc(C#N)cn3)nc2-c2ccc(Cl)cc2Cl)n1` [CHIR-99021] is lower in “Average Z-value”: −4.32 for the first, −4.52 for the second.

Compared with `COc1cc2c(cc1OC)[C@@H]1C(=O)c3ccc4c(c3O[C@@H]1CO2)C[C@H](C(C)C)O4` [DIHYDROROTENONE], `OCCN(CCO)c1nc(N2CCCCC2)c2nc(N(CCO)CCO)nc(N3CCCCC3)c2n1` [DIPYRIDAMOLE] is higher in “Average Z-value”: −5.14 for the first, −4.41 for the second.

Going from `COc1c(C)c2c(c(O)c1C/C=C(\C)CCC(=O)O)C(=O)OC2` [Mycophenolic acid] to `Cc1nc(Nc2[nH]nc3c2CN(C(=O)N[C@H](CN(C)C)c2ccccc2)C3(C)C)c2sccc2n1` [PF-3758309], the “Average Z-value” rises from −4.54 to −4.29.

Compared with `CC[C@@]1(O)C(=O)OCc2c1cc1n(c2=O)Cc2cc3c([N+](=O)[O-])cccc3nc2-1` [Rubitecan], `Cc1ccc(O)c(N=Nc2ccccc2)n1` [SIB 1757] is lower in “Average Z-value”: −4.17 for the first, −7.89 for the second.

Compared with `CCCS(=O)(=O)Nc1ccc(F)c(C(=O)c2c[nH]c3ncc(-c4ccc(Cl)cc4)cc23)c1F` [Vemurafenib], `C=C1[C@@H](C)[C@H]2[C@H](Cc3ccccc3)NC(=O)[C@]23OC(=O)/C=C/[C@H](O)CCC[C@@H](C)C/C=C/[C@H]3[C@@H]1O` [cytochalasin B] is lower in “Average Z-value”: −8.55 for the first, −20.00 for the second.

For YK 4-279, the “Average Z-value” was −7.60.

Same assay, conditions: compounds regulating actin-cytoskeleton

For `COc1cc2c(c(OC)c1OC)-c1ccc(OC)c(=O)cc1[C@@H](NC(C)=O)CC2` [colchicine], the “activation state induced in the screen” value was “M2-activating”.
`C=C1[C@@H](C)[C@H]2[C@H](Cc3ccccc3)NC(=O)[C@]23OC(=O)/C=C/[C@H](O)CCC[C@@H](C)C/C=C/[C@H]3[C@@H]1O` [cytochalasin-B] was tested, and the “activation state induced in the screen” value was “M1-activating”.
With `COC(=O)Nc1nc2ccc(SC(C)C)cc2[nH]1` [methiazole] the “activation state induced in the screen” value was “M1-activating”.
With `CCCCc1ccc2[nH]c(NC(=O)OC)nc2c1` [parbendazole] the “activation state induced in the screen” value was “M1-activating”.
`COc1cc([C@@H]2c3cc4c(cc3[C@H](O)[C@H]3COC(=O)[C@H]23)OCO4)cc(OC)c1OC` [podofilox] was tested, and the “activation state induced in the screen” value was “M2-activating”.
With `CC[C@]1(O)C[C@@H]2CN(CCc3c([nH]c4ccccc34)[C@@](C(=O)OC)(c3cc4c(cc3OC)N(C)[C@H]3[C@@](O)(C(=O)OC)[C@H](OC(C)=O)[C@]5(CC)C=CCN6CC[C@]43[C@@H]65)C2)C1` [vinblastine sulfate] the “activation state induced in the screen” value was “M2-activating”.

Same assay, conditions: known M1-/M2-activating stimuli

IL13: classic M2 stimulus was tested, and the cell shape induced was “elongated cell shape”.
For TNFα, the cell shape induced was “round shape”.
lipopolysaccharide [LPS] was tested, and the cell shape induced was “round shape”.

Test system: hMDMs differentiated into M1 by IFNγ plus TNFα
Test: Reprogramming screen and dosage response on M1-like differentiated macrophages
Assay type: cell-based, human
Settings: Homo sapiens, Macrophage, 24 h; M2-activating compounds on M1-like macrophages (IFNγ plus TNFα); EC = concentration reaching Z-score cutoff
Description: Data were summarized from 3 independent experiments.
(§1) Human macrophages were seeded into optical 384-well plates. Sixteen hours later, medium in M1 plates were replaced by M1 differentiating medium (complete RPMI with 50 ng/mL IFNγ and 50 ng/mL TNFα) and medium in M2 plates by M2 differentiating medium (complete RPMI with 5 ng/mL IL-4 and 5 ng/mL IL-13). After 24 hrs cell differentiation, M1 plates (M1 macrophages) and M2 plates (M2 macrophages) were treated with M2-activating compounds and M1-activating compounds respectively for 24 hrs. Two independent experiments were performed with or without replacing differentiating medium right before treatment. Cell imaging and analysis were performed as indicated above.
To investigate whether the identified compounds could reprogram or reactivate macrophages after M1- or M2-like differentiation, we rescreened the hits on M1- or M2-activated macrophages. hMDMs were activated into M2-like macrophages by IL-4 plus IL-13 or M1-like macrophages by IFNγ plus TNFα. […] 24 hours later, cell images were taken and cell shapes were quantified.
(§2) We also rescreened the hits on differentiated macrophages in the presence of differentiating cytokines: either IL-4 plus IL-13 or IFNγ plus TNFα.

Going from `CNC(=O)c1ccccc1Sc1ccc2c(/C=C/c3ccccn3)n[nH]c2c1` [Axitinib] to `COc1cc2ncn(-c3cc(OCc4ccccc4C(F)(F)F)c(C(N)=O)s3)c2cc1OC` [GW-843682X], the EC (M2 Z-score cutoff) rises from 0.591 µM to 0.897 µM (1.5-fold).

Compared with `COc1cc(Nc2c(C#N)cnc3cc(OCCCN4CCN(C)CC4)c(OC)cc23)c(Cl)cc1Cl` [Bostunib], `Cc1nc(Nc2ncc(C(=O)Nc3c(C)cccc3Cl)s2)cc(N2CCN(CCO)CC2)n1` [Dasatinib] is 4.6-fold higher in EC (M2 Z-score cutoff): 0.164 µM for the first, 0.762 µM for the second.

Same assay, conditions: M2-activating compounds on M1-like macrophages (IFNγ plus TNFα); EC = concentration reaching Z-score cutoff

Compared with `CC(C)(C)n1nc(-c2cccc3ccccc23)c2c(N)ncnc21` [1-Naphthyl PP1], `O=C1NC(=O)c2c1c1c3ccccc3[nH]c1c1[nH]c3ccccc3c21` [Arcyriaflavin A] is 1.5-fold lower in EC (M2 Z-score cutoff): 2.072 µM for the first, 1.342 µM for the second.

Same assay, conditions: differentiated macrophages

`CC(C)(C)n1nc(-c2cccc3ccccc23)c2c(N)ncnc21` [1-Naphthyl PP1] was tested, and the Category was “M2 (6 for M2-activated macrophages)”.
With `O=C1NC(=O)c2c1c1c3ccccc3[nH]c1c1[nH]c3ccccc3c21` [Arcyriaflavin A] the Category was “M2 (6 for M2-activated macrophages)”.

Test system: hMDMs differentiated into M2 by IL-4 plus IL-13
Test: Reprogramming screen and dosage response on M2-like differentiated macrophages;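 note: human monocyte-derived macrophages held 24 h in 5 ng/mL IL-4 plus IL-13 before 24 h compound exposure, with cell shape measured from images in 384-well plates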
Settings: Homo sapiens, Macrophage, 24 h, read-out: EC
Description: Shown are comparison of Z-scores between 5 μM or 10 μM of compounds. […] Shown are comparison of Z-scores between 5 μM or 10 μM of compounds. […] EC and fitness of 21 M1-polarizing (triangle) and 19 M2-polarizing compounds (circle) were calculated by the Michaelis-Menten equation and plotted. Data were summarized from 3 independent experiments.
as §1
To investigate whether the identified compounds could reprogram or reactivate macrophages after M1- or M2-like differentiation, we rescreened the hits on M1- or M2-activated macrophages. hMDMs were activated into M2-like macrophages by IL-4 plus IL-13 or M1-like macrophages by IFNγ plus TNFα. After removing the differentiating cytokines, M2-like macrophages were treated with each of the 166 M1-activating compounds and M1-like macrophages were treated with each of the 180 M2-activating compounds at a final concentration of either 5 μM and 10 μM. 24 hours later, cell images were taken and cell shapes were quantified. […] Dosage responses were carried out with 40 commercial available compounds (21 M1-activating and 19 M2-activating) on polarized macrophages.
as §2

Compared with `CCCCC[C@H](O)/C=C/[C@H]1[C@H](O)CC(=O)[C@@H]1CCCCCCC(=O)O` [Alprostadil], `O=C1c2c(O)ccc(O)c2C(=O)c2c(NCCNCCO)ccc(NCCNCCO)c21` [MITOXANTRONE HYDROCHLORIDE] is 9.9-fold higher in EC (M1 Z-score cutoff): 0.0562 µM for the first, 0.559 µM for the second.

First: C[C@@]12C(=O)OC(=O)[C@]1(C)[C@H]1CC[C@@H]2O1 [Cantharidin]
Second: Cc1oc(=O)oc1CN1CCN(c2cc3c(cc2F)c(=O)c(C(=O)O)c2n3C(C)S2)CC1 (stereo not shown) [Prulifloxacin]
The EC (M1 Z-score cutoff) of the first is 94-fold lower: 0.159 µM for the first, 15 µM for the second.

`COc1ccc(S(=O)(=O)N(C(C)=O)c2ccccc2/C=C/c2cc[n+]([O-])cc2)cc1` [HMN214] and `O=C(Nc1ccc([N+](=O)[O-])cc1Cl)c1cc(Cl)ccc1O` [Niclosamide] are within 1.5-fold of each other in EC (M1 Z-score cutoff): 1.48 µM for the first, 1.13 µM for the second.

For `OC1(c2ccc(Cl)c(C(F)(F)F)c2)CCN(CCCC(c2ccc(F)cc2)c2ccc(F)cc2)CC1` [Penfluridol], the EC (M1 Z-score cutoff) was 0.169 µM.

Same assay, conditions: M1-activating compounds on M2-like macrophages (IL-4 plus IL-13); EC = concentration reaching Z-score cutoff

Going from `CC(C)c1ccc(Cn2ccc3c4c(N)nc(NC5CC5)nc4ccc32)cc1.Cl.Cl` [SCH 79797 dihydrochloride] to `O=C1c2ccccc2-c2nc3nonc3nc21` [SMER3], the EC falls from 0.2194 µM to 0.09398 µM (2.3-fold).

Going from `CCC[C@H](NC(=O)/C(C#N)=C/c1cccc(Br)n1)c1ccccc1` [WP1130] to Evodiamine, the EC falls from 15 µM to 0.6799 µM (22-fold).

Same assay, conditions: differentiated macrophages

For `CC(C)c1ccc(Cn2ccc3c4c(N)nc(NC5CC5)nc4ccc32)cc1.Cl.Cl` [SCH 79797 dihydrochloride], the Category was “M1 (−4 for M1-activated macrophages)”.
`O=C1c2ccccc2-c2nc3nonc3nc21` [SMER3] was tested, and the Category was “M1 (−4 for M1-activated macrophages)”.
In the case of `CCC[C@H](NC(=O)/C(C#N)=C/c1cccc(Br)n1)c1ccccc1` [WP1130], the Category is reported as “M1 (−4 for M1-activated macrophages)”.
